Data from patent US10508109B2 (priority 2015, dated 2019).
Read-outs that look alike come from different tables or passages of the source.

Columns and labels:
A549 = test: Cell-based assay, anti-proliferative activity (Cell Counting Kit-8, 72 hours); conditions: Homo sapiens, read-out: IC50 (μM) A549
Summary of the method: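 IC50 values come from growth read-outs taken after the cells' exposure to each candidate inhibitor. Cells had been plated in 96-well microtiter plates beforehand.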

CCD-18Co = test: as above; conditions: Homo sapiens, read-out: IC50 (μM) CCD-18Co
Summary of the method: (§1)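 Cells were seeded in 96-well plates and exposed to the inhibitors for 72 hours, after which growth was measured with Cell Counting Kit-8. IC50 was derived from a serial dilution series of 0, 1.5625, 3.125, 6.25, 12.5, 25, 50 and 100 micro-M.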

HCT-116 = test: as above; conditions: Homo sapiens, read-out: IC50 (μM) HCT-116
Summary of the method: as §1

HFL1 = test: as above; conditions: Homo sapiens, read-out: IC50 (μM) HFL1
Summary of the method: as §1

PC14 = test: as above; conditions: Homo sapiens, read-out: IC50 (μM) PC14
Summary of the method: as §1

SUV39H2 = SUV39H2 (Homo sapiens (Human), UniProt Q9H5I1); conditions: read-out: IC50 (μM) Suv 39H2 assay; enzyme assay
[1] = A549 cells, Cell Counting Kit-8, 72 hours
[2] = CCD-18Co cells, Cell Counting Kit-8, 72 hours
[3] = HCT-116 cells, Cell Counting Kit-8, 72 hours
[4] = HFL1 cells, Cell Counting Kit-8, 72 hours
[5] = PC-14, PC14 cells, Cell Counting Kit-8, 72 hours

SUV39H2, sequence (Q9H5I1 whole entry): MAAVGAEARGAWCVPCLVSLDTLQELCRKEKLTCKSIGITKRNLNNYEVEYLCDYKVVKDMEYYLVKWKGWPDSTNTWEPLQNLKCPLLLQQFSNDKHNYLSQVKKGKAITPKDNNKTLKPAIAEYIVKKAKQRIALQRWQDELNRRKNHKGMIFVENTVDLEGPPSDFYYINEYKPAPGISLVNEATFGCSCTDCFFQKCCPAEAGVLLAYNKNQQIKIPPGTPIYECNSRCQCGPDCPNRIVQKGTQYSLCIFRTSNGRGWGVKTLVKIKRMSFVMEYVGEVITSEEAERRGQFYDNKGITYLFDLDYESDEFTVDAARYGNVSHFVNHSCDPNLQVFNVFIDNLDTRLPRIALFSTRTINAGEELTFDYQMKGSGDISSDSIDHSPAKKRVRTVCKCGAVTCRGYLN

| SMILES | IC50 (A549; [1]) | IC50 (CCD-18Co; [2]) | IC50 (HCT-116; [3]) | IC50 (HFL1; [4]) | IC50 (PC14; [5]) | IC50 (SUV39H2) | IC50 (A549; A549, 72 h) | IC50 (CCD-18Co; CCD-18Co, 72 h) | IC50 (HCT-116; HCT-116, 72 h) | IC50 (HFL1; HFL1, 72 h) | IC50 (PC14; PC-14, 72 h) |
| --- | --- | --- | --- | --- | --- | --- | --- | --- | --- | --- | --- |
| CCCS(=O)(=O)N1CCN(c2ccn3cc(-c4cc(Cl)c(OC)cc4OC)nc3n2)CC1 [Example 191, 2-(5-chloro-2,4-dimethoxyphenyl)-7-[4-(propylsulfonyl)piperazin-1-yl]-imidazo[1,2-a]pyrimidine] | 1.5 µM | 3.2 µM | 1.9 µM | 2 µM | 1.5 µM | 0.0293 µM | – | – | – | – | – |
| COc1cc(OC)c(-c2cn3ccc(N4CCC(NS(C)(=O)=O)CC4)nc3n2)cc1Cl [Example 192, N-(1-(2-(5-chloro-2,4-dimethoxyphenyl)imidazo[1,2-a]pyrimidin-7-yl)-piperidin-4-yl)methanesulfonamide] | 10 µM | 5.3 µM | 10 µM | 5.1 µM | 10 µM | 0.0148 µM | – | – | – | – | – |
| CCOP(=O)(CCN1CC=C(c2ccn3cc(-c4cc(Cl)c(OC)cc4OC)nc3c2)CC1)OCC [Example 194, diethyl (2-(4-(2-(5-chloro-2,4-dimethoxyphenyl)imidazo[1,2-a]pyridin-7-yl)-5,6-dihydropyridin-1(2H)-yl)ethyl)phosphonate] | 9 µM | 10 µM | 8.6 µM | 10 µM | 5.7 µM | 0.0696 µM | – | – | – | – | – |
| COc1cc(OC)c(-c2cn3ccc(C4=CCN(P(=O)(OC)OC)CC4)cc3n2)cc1Cl [Example 195, dimethyl{4-[2-(5-chloro-2,4-dimethoxyphenyl)imidazo[1,2-a]pyridin-7-yl]-5,6-dihydropyridin-1(2H)-yl}phosphonate] | – | – | – | – | – | 0.0375 µM | 0.7 µM | 5.5 µM | 0.93 µM | 2.8 µM | 0.51 µM |
| COc1cc(OCCCN(C)C)c(-c2cn3ccc(N4CCN(S(=O)(=O)N(C)C)CC4)cc3n2)cc1Cl [Example 196, 4-(2-{5-Chloro-2-[3-(dimethylamino)propoxy]-4-methoxyphenyl}imidazo[1,2-a]pyridin-7-yl)-N,N-dimethylpiperazine-1-sulfonamide] | 2.1 µM | 2.8 µM | 2.2 µM | 2.4 µM | 1.9 µM | 0.0147 µM | – | – | – | – | – |
| COc1cc(OCCCN(C)C)c(-c2cn3ccc(N4CCN(S(=O)(=O)C(C)C)CC4)cc3n2)cc1Cl [Example 197, 3-(4-Chloro-2-(7-(4-(isopropylsulfonyl)piperazin-1-yl)imidazo[1,2-a]pyridin-2-yl)-5-methoxyphenoxy)-N,N-dimethylpropan-1-amine] | 3.4 µM | 2.9 µM | 3.8 µM | 2.9 µM | 2.3 µM | 0.0144 µM | – | – | – | – | – |
| COc1cc(OC)c(-c2cn3ccc(N4CCC(NP(=O)(OC)OC)CC4)cc3n2)cc1Cl [Example 198, Dimethyl (1-(2-(5-chloro-2,4-dimethoxyphenyl)imidazo[1,2-a]pyridin-7-yl)piperidin-4-yl)phosphoramidate] | 3.2 µM | 3.5 µM | 5.7 µM | 1.6 µM | 3.7 µM | 0.00435 µM | – | – | – | – | – |
| CCS(=O)(=O)N1CCN(c2ccn3cc(-c4cc(Cl)c(OC)cc4OCCCN(C)C)nc3c2)CC1 [Example 199, 3-(4-chloro-2-(7-(4-(ethylsulfonyl)piperazin-1-yl)imidazo[1,2-a]pyridin-2-yl)-5-methoxyphenoxy)-N,N-dimethylpropan-1-amine] | 5.2 µM | 3.9 µM | 6.4 µM | 4.8 µM | 3 µM | 0.0168 µM | – | – | – | – | – |
| COc1cc(OC)c(-c2cn3ccc(N4CCCN(S(=O)(=O)N(C)C)CC4)cc3n2)cc1Cl [Example 200, 4-[2-(5-chloro-2,4-dimethoxyphenyl)imidazo[1,2-a]pyridin-7-yl]-N,N-dimethyl-1,4-diazepane-1-sulfonamide] | 1.6 µM | 3 µM | 2 µM | 1.7 µM | 1.3 µM | 0.00674 µM | – | – | – | – | – |
| COc1cc(OC)c(-c2cn3ccc(N4CCCN(S(C)(=O)=O)CC4)cc3n2)cc1Cl [Example 201, 2-(5-chloro-2,4-dimethoxyphenyl)-7-[4-(methylsulfonyl)-1,4-diazepan-1-yl]imidazo[1,2-a]pyridine] | 2.2 µM | 3.2 µM | 2.7 µM | 3 µM | 1.9 µM | 0.0064 µM | – | – | – | – | – |
| CCOP(=O)(CCN1CCN(c2ccn3cc(-c4cc(Cl)c(OC)cc4OC)nc3c2)CC1)OCC [Example 202, diethyl (2-(4-(2-(5-chloro-2,4-dimethoxyphenyl)imidazo[1,2-a]pyridin-7-yl)piperazin-1-yl)ethyl)phosphonate] | 10 µM | 5.6 µM | 10 µM | 7.2 µM | 8 µM | 0.0064 µM | – | – | – | – | – |
| COc1cc(OC)c(-c2cn3ccc(N4CCN(P(=O)(OC)OC)CC4)cc3n2)cc1Cl [Example 203, dimethyl {4-[2-(5-chloro-2,4-dimethoxyphenyl)imidazo[1,2-a]pyridin-7-yl]piperazin-1-yl}phosphonate] | – | – | – | – | – | 0.00177 µM | 3.9 µM | 6 µM | 5.1 µM | 4 µM | 1.8 µM |
| COc1cc(OC)c(-c2cn3ccc(N4CCN(S(=O)(=O)C5CCCC5)CC4)nc3n2)cc1Cl [Example 204, 2-(5-chloro-2,4-dimethoxyphenyl)-7-[4-(cyclopentylsulfonyl)-piperazin-1-yl]imidazo[1,2-a]pyrimidine] | 0.75 µM | 4.5 µM | 1 µM | 1.7 µM | 0.6 µM | 0.0448 µM | – | – | – | – | – |
| COc1cc(OC)c(-c2cn3ccc(N4CCN(S(=O)(=O)C(C)C)CC4)nc3n2)cc1Cl [Example 205, 2-(5-chloro-2,4-dimethoxyphenyl)-7-[4-(isopropylsulfonyl)piperazin-1-yl]imidazo[1,2-a]pyrimidine] | 1.2 µM | 3.1 µM | 1.9 µM | 2 µM | 0.62 µM | 0.0291 µM | – | – | – | – | – |
| CCS(=O)(=O)N1CCCN(c2ccn3cc(-c4cc(Cl)c(OC)cc4OC)nc3c2)CC1 [Example 206, 2-(5-chloro-2,4-dimethoxyphenyl)-7-[4-(ethylsulfonyl)-1,4-diazepan-1-yl]imidazo[1,2-a]pyridine] | 2.6 µM | 2.9 µM | 3.3 µM | 2.3 µM | 1.6 µM | 0.00561 µM | – | – | – | – | – |
| COc1cc(OC)c(-c2cn3ccc(N4CCCN(P(=O)(OC)OC)CC4)cc3n2)cc1Cl [Example 207, dimethyl (4-(2-(5-chloro-2,4-dimethoxyphenyl)imidazo[1,2-a]pyridin-7-yl)-1,4-diazepan-1-yl)phosphonate] | – | – | – | – | – | 0.0113 µM | 10 µM | 10 µM | 10 µM | 10 µM | 10 µM |
| COc1cc(OC)c(-c2cn3cc(NCCN)c(N4CCOCC4)c(F)c3n2)cc1Cl [Example 208, N^1-(2-(5-chloro-2,4-dimethoxyphenyl)-8-fluoro-7-morpholinoimidazo-[1,2-a]pyridine-6-yl)ethane-1,2-diamine] | 10 µM | 5.9 µM | 10 µM | 8.4 µM | 8.4 µM | 0.0291 µM | – | – | – | – | – |
| COc1cc(OCCCN(C)C)c(-c2cn3ccc(N4CCCNCC4)cc3n2)cc1Cl [Example 209, 3-{2-[7-(1,4-diazepan-1-yl)imidazo[1,2-a]pyridin-2-yl]-4-chloro-5-methoxyphenoxy}-N,N-dimethylpropan-1-amine] | 3 µM | 3.2 µM | 3.7 µM | 1.2 µM | 2.7 µM | 0.00207 µM | – | – | – | – | – |
| CCOP(=O)(CCN1CCCN(c2ccn3cc(-c4cc(Cl)c(OC)cc4OC)nc3c2)CC1)OCC [Example 210, diethyl (2-(4-(2-(5-chloro-2,4-dimethoxyphenyl)imidazo[1,2-a]pyridin-7-yl)-1,4-diazepan-1-yl)ethyl)phosphonate] | 10 µM | 5.5 µM | 10 µM | 7.2 µM | 4.5 µM | 0.0029 µM | – | – | – | – | – |
| COc1cc(OCCCN(C)C)c(-c2cn3ccc(N4CCCN(C(=O)OC(C)(C)C)CC4)cc3n2)cc1Cl [Example 211, tert-butyl 4-(2-{5-chloro-2-[3-(dimethylamino)propoxy]-4-methoxyphenyl}imidazo[1,2-a]pyridin-7-yl)-1,4-diazepane-1-carboxylate] | 2.9 µM | 1.4 µM | 2.4 µM | 1.4 µM | 0.8 µM | 0.0563 µM | – | – | – | – | – |
| COc1cc(OCCCN(C)C)c(-c2cn3ccc(N4CCCN(S(=O)(=O)C5CC5)CC4)cc3n2)cc1Cl [Example 212, 3-(4-chloro-2-(7-(4-(cyclopropylsulfonyl)-1,4-diazepan-1-yl)imidazo[1,2-a]-pyridin-2-yl)-5-methoxyphenoxy)-N,N-dimethylpropan-1-amine] | 8.1 µM | 6 µM | 8.6 µM | 5.8 µM | 4.2 µM | 0.0161 µM | – | – | – | – | – |
